What all share (format): cell-based
Assay [1] has as its target T1, SLC3A2 (4f2) injected alone (Homo sapiens, UniProt P08195).
T1 construct: expressed in transfected cells; host or cells: Xenopus laevis oocytes (cRNA injection)
T1 sequence (P08195 1-529): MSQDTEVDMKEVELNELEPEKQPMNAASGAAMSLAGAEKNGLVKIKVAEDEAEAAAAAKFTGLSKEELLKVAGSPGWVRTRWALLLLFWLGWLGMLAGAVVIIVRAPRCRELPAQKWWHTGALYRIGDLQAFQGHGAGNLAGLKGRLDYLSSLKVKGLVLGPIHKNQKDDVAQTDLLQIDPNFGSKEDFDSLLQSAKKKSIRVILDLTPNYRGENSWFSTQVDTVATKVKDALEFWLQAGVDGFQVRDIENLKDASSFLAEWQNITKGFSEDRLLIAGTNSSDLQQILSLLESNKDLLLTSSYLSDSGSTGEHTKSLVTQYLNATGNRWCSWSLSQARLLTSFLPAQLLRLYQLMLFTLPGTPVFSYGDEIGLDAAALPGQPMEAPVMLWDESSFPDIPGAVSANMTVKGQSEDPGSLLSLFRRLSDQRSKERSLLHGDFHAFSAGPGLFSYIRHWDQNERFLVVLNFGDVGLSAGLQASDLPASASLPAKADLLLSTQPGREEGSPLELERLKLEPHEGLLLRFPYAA
Nature of the assay: [3H]D-serine uptake in oocytes. Particulars: 10 µM BPOHP. On the procedure:
Figure SM-3A. Representative traces showing 100µM L-Ala currents and co-application of 3µM BPOHP (black bar) with no effect on SLC38A neutral amino acid transporters SLC38A1(ATA1), SLC38A2 (ATA2), and SLC38A4 (ATA3). SM-3B. [3H]D-serine uptake (100nM) in SLC1A4 is blocked by BPOHP (10µM), however, [ 3H]D-serine uptake by co -expressed SLC7A10+SLC3A2 (asc1+4F2) nor SLC3A2 (4f2) expressed (injected) alone was blocked by application of 10µM BPOHP.
Figure SM-4. Tosic acid approach to compound 12c. (i) Tosylic acid 0.1M in THF 60◦C. (ii) Phenol and NaH in DCM, 40◦C under argon balloon (iii) 10% Pd/C (10% w/eq.), H2, MeOH, H2O, […]
S.Figure 3 A. Representative traces showing 100uM L-Ala currents and co-application of 3uM BPOHP (black bar) with no effect on SLC38A neutral amino acid transporters SLC38A1(ATA1), SLC38A2 (ATA2), and SLC38A4 (ATA3). B. [3H]D-serine uptake (100nM) in SLC1A4 is blocked by BPOHP (10uM), but not the H3D-serine uptake by […]

Assay [2] deals with T2, SLC1A2 (EAAT2) (Homo sapiens, UniProt P43004).
T2 construct: expressed in transfected cells; host or cells: Xenopus laevis oocytes (cRNA injection)
Kind of assay: TEVC in oocytes expressing glutamate transporter. Particulars: 10 µM L-glu current, read-out: IC50, block of glutamate current. How it is done: BPOHP activity was evaluated against the glutamate transporters paralogs within the SLC1A gene family (SLC1A 1–3) as well as at neutral amino acid transporters that share common ligand substrates with the SLC1 family including SLC38A1,2, and 4 (ATA1, ATA2, ATA3) and heteromeric transporters SLC7A10+SLC3A2 (asc-1/4f2). […] Finally, radiolabeled [^3H]D-serine uptake was used to assess the electroneutral SLC7A10+SLC3A2 transporter, in which 10 µM BPOHP had no effect (Figure S3).
(§1) Uptake was halted by washing 3 times with 4 °C ND96 buffer. Oocytes were then lysed in 0.1% Triton X-100, and radioactivity was counted via liquid scintillation. Dose response curves were generated by fitting fractional inhibition (I) to the expression I = Imax × [inhibitor]/([inhibitor] + IC50).
Two-electrode voltage clamp (TEVC) transporter currents were recorded with a GeneClamp 500 amplifier and Digidata 1320A analog–digital interface (Molecular Devices, San Jose, CA, USA). […] Data were acquired with Axograph (v1.7.6) and LabChart (v7) and analyzed with Kaleidagraph software (v4.1) (Synergy, Reading, PA, USA). Uncoupled anion currents associated with the transport of substrate and block of SLC1A4 or SLC1A5 mediated leak conductance were recorded in the presence of Ringer with 50% substitution of NaCl by NaSCN to amplify the non-transported anion conductance. […]

Assay [3] addresses T3, SLC1A3 (EAAT1) (Homo sapiens, UniProt P43003).
T3 construct: expressed in transfected cells; host or cells: Xenopus laevis oocytes (cRNA injection)
Kind of assay: TEVC in oocytes expressing glutamate transporter. The settings on record: EAAT1 (SLC1A3); 10 µM L-glu current, TEVC; read-out: IC50, block of glutamate current. How it is done: (§2) Additionally, 4-HP applied at 1 mM was used to assess activity at the glutamate transporters SLC1A3 or SLC1A1.
(§3) BPOHP activity was evaluated against the glutamate transporters paralogs within the SLC1A gene family (SLC1A 1–3) as well as at neutral amino acid transporters that share common ligand substrates with the SLC1 family including SLC38A1,2, and 4 (ATA1, ATA2, ATA3) and heteromeric transporters SLC7A10+SLC3A2 (asc-1/4f2).
as §1
(§4) Two-electrode voltage clamp (TEVC) transporter currents were recorded with a GeneClamp 500 amplifier and Digidata 1320A analog–digital interface (Molecular Devices, San Jose, CA, USA). Electrodes (0.2–1.0 MΩ) were filled with 3M KCl and the recording chamber was grounded with an agar bridge. Data were acquired with Axograph (v1.7.6) and LabChart (v7) and analyzed with Kaleidagraph software (v4.1) (Synergy, Reading, PA, USA). Uncoupled anion currents associated with the transport of substrate and block of SLC1A4 or SLC1A5 mediated leak conductance were recorded in the presence of Ringer with 50% substitution of NaCl by NaSCN to amplify the non-transported anion conductance.
(§5) Figure SM-2 TEVC from oocytes expressing SLC1A1-3 transporters.
(§6) (1 picture or pasted object on this page, not shown here)

In assay [4] the target is T4, SLC1A1 (EAAT3) (Homo sapiens, UniProt P43005).
T4 construct: expressed in transfected cells; host or cells: Xenopus laevis oocytes (cRNA injection)
T4 sequence (P43005 1-524): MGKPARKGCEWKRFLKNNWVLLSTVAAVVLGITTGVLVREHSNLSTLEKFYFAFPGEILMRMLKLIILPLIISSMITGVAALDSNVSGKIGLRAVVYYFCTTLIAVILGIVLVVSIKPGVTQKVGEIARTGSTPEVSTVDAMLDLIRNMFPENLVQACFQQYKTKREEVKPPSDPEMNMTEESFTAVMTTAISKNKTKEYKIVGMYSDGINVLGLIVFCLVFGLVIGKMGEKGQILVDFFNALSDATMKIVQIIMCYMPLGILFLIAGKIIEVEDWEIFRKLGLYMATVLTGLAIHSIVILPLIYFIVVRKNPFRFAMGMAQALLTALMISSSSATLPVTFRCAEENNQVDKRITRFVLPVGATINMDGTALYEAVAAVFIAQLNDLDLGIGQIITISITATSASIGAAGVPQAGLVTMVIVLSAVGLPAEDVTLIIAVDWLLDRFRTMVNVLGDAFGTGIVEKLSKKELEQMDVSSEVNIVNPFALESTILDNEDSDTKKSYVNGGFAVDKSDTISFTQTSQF
Nature of the assay: TEVC in oocytes expressing glutamate transporter. The settings on record: EAAT3 (SLC1A1); 10 µM L-glu current, TEVC; read-out: IC50, block of glutamate current. How it is done:
as §2, §3, §1, §4, §5, §6

Several values for one entry are separate records, joined by “and”; a condition that tells them apart may be missing. Equal values may be shown once.

In general, IC50 refers to the concentration needed to halve the response being measured.

T3 sequence (P43003 whole entry): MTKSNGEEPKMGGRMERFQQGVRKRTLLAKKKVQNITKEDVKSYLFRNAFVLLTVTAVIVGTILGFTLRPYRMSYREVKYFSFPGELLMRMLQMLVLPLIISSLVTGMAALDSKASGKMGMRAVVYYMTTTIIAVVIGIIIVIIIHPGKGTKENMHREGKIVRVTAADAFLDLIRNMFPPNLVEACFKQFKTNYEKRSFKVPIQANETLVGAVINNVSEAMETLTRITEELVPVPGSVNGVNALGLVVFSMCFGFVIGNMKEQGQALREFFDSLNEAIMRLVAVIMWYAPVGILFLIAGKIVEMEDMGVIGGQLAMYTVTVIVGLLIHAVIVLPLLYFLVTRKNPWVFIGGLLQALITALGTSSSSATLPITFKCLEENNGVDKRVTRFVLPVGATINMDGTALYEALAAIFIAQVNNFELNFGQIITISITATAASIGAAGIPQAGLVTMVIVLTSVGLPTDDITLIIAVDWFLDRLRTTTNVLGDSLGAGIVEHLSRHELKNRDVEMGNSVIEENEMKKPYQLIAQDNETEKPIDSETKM
T2 sequence (P43004 whole entry): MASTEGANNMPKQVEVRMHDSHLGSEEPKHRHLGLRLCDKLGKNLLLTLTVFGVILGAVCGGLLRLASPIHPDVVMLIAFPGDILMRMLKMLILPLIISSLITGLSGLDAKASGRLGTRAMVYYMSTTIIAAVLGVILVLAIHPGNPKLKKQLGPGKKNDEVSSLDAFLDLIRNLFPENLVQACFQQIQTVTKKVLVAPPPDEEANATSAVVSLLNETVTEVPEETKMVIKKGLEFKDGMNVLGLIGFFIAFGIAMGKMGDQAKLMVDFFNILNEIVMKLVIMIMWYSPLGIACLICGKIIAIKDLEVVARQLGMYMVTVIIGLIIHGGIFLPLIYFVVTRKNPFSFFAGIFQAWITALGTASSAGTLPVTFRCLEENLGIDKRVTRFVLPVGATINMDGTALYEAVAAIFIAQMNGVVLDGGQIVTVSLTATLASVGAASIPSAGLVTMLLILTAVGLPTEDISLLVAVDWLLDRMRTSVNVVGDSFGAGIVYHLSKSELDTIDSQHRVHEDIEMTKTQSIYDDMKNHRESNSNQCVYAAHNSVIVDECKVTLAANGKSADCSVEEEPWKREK

With `O=C(O)[C@H]1NC[C@@H](OCc2ccc(-c3ccccc3)cc2)[C@@H]1O` [14e], the “effect on [3H]D-serine uptake” value in assay [1] is “no effect”. Further, the IC50 is 1200 nM in assay [2]; 1750 nM and 2450 nM in assay [3]; 19500 nM and 25300 nM in assay [4].

The values are drawn from PMC11123841, “Discovery and Synthesis of Hydroxy-L-Proline Blockers of the Neutral Amino Acid Transporters SLC1A4 (ASCT1) and SLC1A5 (ASCT2)” (Molecules, 2024).
